These are literature values, as cited in patent US20020136782A1, “Composition patent for solid-dosage form of weight loss product” (priority 2001, published 2002).

For the series the following is noted: non-toxic dose; equivalent doses.

As to Chromium picolinate, the chromosome damage entry is “significant chromosome damage”.

With chromium polynicotinate, the chromosome damage entry is on record as “did not cause chromosome damage”.
